Measurements reported in ChEMBL document CHEMBL3085689, “Targeting the hydrophobic region of Hsp90's ATP binding pocket with novel 1,3,5-triazines” (Bioorg Med Chem Lett, 2013).
pIC50, pKi: −log10 of the molar value. Calls of active or inactive are those of the source. The calls are words filed in the database; no cut-off is given here.

Experiments:
NCI-H1975 = test: Antiproliferative activity against gefitinib-resistant human NCI-H1975 cells after 72 hrs by MTS assay; format: functional, cell-based
[1] = biological target: Heat shock protein HSP 90-beta (Homo sapiens) (UniProt P08238); test: Inhibition of HSP90 in human H1975 cells assessed as reduction of Met level after 24 hrs by densitometric analysis; format: cell-based
[2] = biological target: Heat shock protein HSP 90-beta (Homo sapiens) (UniProt P08238); test: Inhibition of HSP90 in human H1975 cells assessed as upregulation of Hsp70 at 100 uM after 24 hrs by Western blotting analysis; format: cell-based
[3] = biological target: Heat shock protein HSP 90-beta (Homo sapiens) (UniProt P08238); test: Inhibition of HSP90 in human H1975 cells assessed as reduction of Her2 level at 100 uM after 24 hrs by Western blotting analysis; format: cell-based
[4] = biological target: Heat shock protein HSP 90-beta (Homo sapiens) (UniProt P08238); test: Inhibition of HSP90 in human H1975 cells assessed as reduction of Akt level after 24 hrs by densitometric analysis; format: cell-based
[5] = biological target: Heat shock protein HSP 90-beta (Homo sapiens) (UniProt P08238); test: Inhibition of HSP90 in human H1975 cells assessed as upregulation of Hsp70 after 24 hrs by densitometric analysis; format: cell-based
[6] = biological target: Heat shock protein HSP 90-beta (Homo sapiens) (UniProt P08238); test: Inhibition of HSP90 in human H1975 cells assessed as reduction of Met level at 100 uM after 24 hrs by Western blotting analysis; format: cell-based
[7] = biological target: Heat shock protein HSP 90-beta (Homo sapiens) (UniProt P08238); test: Inhibition of HSP90 in human H1975 cells assessed as reduction of Her2 level at 50 to 100 uM after 24 hrs by densitometric analysis; format: cell-based
[8] = biological target: Heat shock protein HSP 90-alpha (Homo sapiens, UniProt P07900); test: Inhibition of recombinant human Hsp90alpha ATP-binding pocket of N-terminal domain after 4 hrs by fluorescence polarization assay
[9] = biological target: Heat shock protein HSP 90-beta (Homo sapiens) (UniProt P08238); test: Inhibition of HSP90 in human H1975 cells assessed as reduction of Her2 level after 24 hrs by densitometric analysis; format: cell-based
[10] = biological target: Heat shock protein HSP 90-beta (Homo sapiens) (UniProt P08238); test: Inhibition of HSP90 in human H1975 cells assessed as reduction of Akt level at 100 uM after 24 hrs by Western blotting analysis; format: cell-based

Sequence of Heat shock protein HSP 90-beta (Homo sapiens) (P08238 whole entry, the tested form may be a part): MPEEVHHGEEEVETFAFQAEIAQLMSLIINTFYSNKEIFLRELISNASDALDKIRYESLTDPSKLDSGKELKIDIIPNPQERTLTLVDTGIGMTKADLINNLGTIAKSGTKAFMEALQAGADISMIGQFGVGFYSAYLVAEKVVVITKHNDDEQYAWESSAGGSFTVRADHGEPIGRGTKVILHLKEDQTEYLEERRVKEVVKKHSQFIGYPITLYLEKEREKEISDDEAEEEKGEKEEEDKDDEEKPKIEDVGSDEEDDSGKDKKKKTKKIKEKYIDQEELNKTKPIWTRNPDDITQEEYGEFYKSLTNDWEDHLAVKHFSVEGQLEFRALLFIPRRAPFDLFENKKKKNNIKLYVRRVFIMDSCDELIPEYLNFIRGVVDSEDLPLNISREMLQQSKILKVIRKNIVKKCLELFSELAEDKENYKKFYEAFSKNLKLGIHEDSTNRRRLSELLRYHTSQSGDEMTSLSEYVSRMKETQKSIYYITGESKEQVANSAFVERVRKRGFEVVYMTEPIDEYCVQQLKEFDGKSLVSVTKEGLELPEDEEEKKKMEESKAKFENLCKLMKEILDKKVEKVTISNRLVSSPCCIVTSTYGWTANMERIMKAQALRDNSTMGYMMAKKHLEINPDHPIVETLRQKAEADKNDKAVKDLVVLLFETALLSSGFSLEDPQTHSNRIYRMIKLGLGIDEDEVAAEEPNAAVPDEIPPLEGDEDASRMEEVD

Activity [2]	Activity [3]	Activity [6]	SMILES	Activity (NCI-H1975)	other results
–	–	–	Nc1nc(Cl)nc(Nc2ccc(O)cc2)n1	Dose-dependent effect	–
–	–	–	Nc1nc(Cl)nc(Nc2ccccc2Cl)n1	Dose-dependent effect	–
Active	Active	Active	Cc1cccc(C)c1Oc1nc(N)nc(Cl)n1	Dose-dependent effect	Activity [1]: Dose-dependent effect; Activity [4]: Dose-dependent effect; Activity [5]: Dose-dependent effect; Activity [7]: Active; pIC50 [8]: 5.30; pKi [8]: 5.55; Activity [9]: Dose-dependent effect; Activity [10]: Active
Active	Active	Active	COc1ccc(Oc2nc(N)nc(Cl)n2)cc1	Dose-dependent effect	Activity [10]: Active
–	–	–	COc1cc(COc2nc(N)nc(Cl)n2)cc(OC)c1OC	Dose-dependent effect	–
inactive	inactive	inactive	COc1ccc(COc2nc(N)nc(Cl)n2)cc1	Dose-dependent effect	–
–	–	–	Nc1nc(Cl)nc(Nc2ccccc2)n1	Dose-dependent effect	–
